# Data reported in article PMC10323144, “Garbage in, garbage out: how reliable training data improved a virtual screening approach against SARS-CoV-2 MPro” (Frontiers in Pharmacology, 2023).
# Square brackets hold non-standard residues; d marks the D form. Peptide text beside a SMILES is read from it. * marks the point of attachment. ξ: configuration not given here. Boc = CC(C)(C)OC(=O)*; ξV = CC(C)C(N)C(=O)O; GABA = NCCCC(=O)O; ξA = CC(N)C(=O)O
# Molecular target: SARS-CoV-2 MPro (Severe acute respiratory syndrome coronavirus 2, UniProt P0DTD1)
# Assay: MPro activity assay (de-quenching of Edans fluorescence on cleavage of a Dabcyl/Edans peptide)
# Type: biochemical
# Conditions: 10 μM or 25 μM compound
row,Compound,% activity MPro at 10 μM or 25 μM [%]
1,"Oc1cc(O)c2c(c1)O[C@H](c1ccc(O)c(O)c1)[C@H](O)C2 [4b, epicatechin]",88.7 ± 0.6

# Same assay, conditions: 25 μM where stated
row,Compound,activity against MPro (in words)
1,"Oc1cc(O)c2c(c1)O[C@H](c1ccc(O)c(O)c1)[C@H](O)C2 [4b, epicatechin]",negligible activity
2,"O=C(O[C@@H]1Cc2c(O)cc(O)cc2O[C@@H]1c1ccc(O)c(O)c1)c1cc(O)c(O)c(O)c1 [5b, epicatechin gallate]",full inhibition

# Same assay, conditions: 60 min pre-incubation, 5 μM substrate
row,Compound,IC50 [µM]
1,COc1ccc(C(=O)C2=C(O)C(=O)N(c3nc4ccc(Cl)cc4s3)C2c2ccc(F)cc2)cc1OC (centres unmarked) [1a],< 25
2,COC(=O)[C@@H](Cc1ccccc1)NC(=O)C(C)NC(=O)[C@@H](NC(=O)C(NC(=O)CCCNC(=O)OC(C)(C)C)C(C)C)C(C)C (some centres unmarked) [2a] ({Boc-GABA}-[ξV]V[ξA][dF]-OMe),32.1 ± 1.4
3,O=C(/C=C/c1ccc2ccccc2c1)c1ccccc1O [25d],0.5

# Same assay, conditions: in-house acquired data, internal screening under standardized conditions (128 compounds)
row,Compound,Class (MPro activity class)
1,COc1ccc(C2C(C(=O)c3ccc4c(c3)OCCO4)=C(O)C(=O)N2c2nc3ccc(C)cc3s2)cc1 (centres unmarked) [AD81],"0 (compounds with IC50 > 20 μM, percentage inhibition <80% at 20 µM or 50 μM, or percentage enzyme inhibition <50% at 10 µM were labelled as INACTIVE)"
2,Cc1ccc2nc(N3C(=O)C(O)=C(C(=O)c4ccc5c(c4)OCCO5)C3c3ccc(O)cc3)sc2c1 (centres unmarked) [AD82],"0 (compounds with IC50 > 20 μM, percentage inhibition <80% at 20 µM or 50 μM, or percentage enzyme inhibition <50% at 10 µM were labelled as INACTIVE)"
3,O=C(C1=C(O)C(=O)N(c2nc3ccc(Cl)cc3s2)C1c1ccc(O)cc1)c1ccc2c(c1)OCCO2 (centres unmarked) [AD83],"0 (compounds with IC50 > 20 μM, percentage inhibition <80% at 20 µM or 50 μM, or percentage enzyme inhibition <50% at 10 µM were labelled as INACTIVE)"
4,COc1ccc(C2C(C(=O)c3ccc4c(c3)OCCO4)=C(O)C(=O)N2c2nc3ccc(Cl)cc3s2)cc1 (centres unmarked) [AD84],"0 (compounds with IC50 > 20 μM, percentage inhibition <80% at 20 µM or 50 μM, or percentage enzyme inhibition <50% at 10 µM were labelled as INACTIVE)"
5,CCCN1C(=O)C(O)=C(C(=O)c2ccccc2)C1c1ccccc1 (centres unmarked) [AD85],"0 (compounds with IC50 > 20 μM, percentage inhibition <80% at 20 µM or 50 μM, or percentage enzyme inhibition <50% at 10 µM were labelled as INACTIVE)"
6,COc1ccc(C2C(C(=O)c3ccc4c(c3)OCCO4)=C(O)C(=O)N2c2nc3ccc(OC)cc3s2)cc1 (centres unmarked) [ADKPN160],"0 (compounds with IC50 > 20 μM, percentage inhibition <80% at 20 µM or 50 μM, or percentage enzyme inhibition <50% at 10 µM were labelled as INACTIVE)"
7,O=C(C1=C(O)C(=O)N(c2nc3ccccc3s2)C1c1ccc(F)cc1)c1ccc2c(c1)OCCO2 (centres unmarked) [ADKPN161],"0 (compounds with IC50 > 20 μM, percentage inhibition <80% at 20 µM or 50 μM, or percentage enzyme inhibition <50% at 10 µM were labelled as INACTIVE)"
8,COc1ccc(C2C(C(=O)c3ccc(OC)c(OC)c3)=C(O)C(=O)N2c2nc3ccc(OC)cc3s2)cc1 (centres unmarked) [ADKPN162],"0 (compounds with IC50 > 20 μM, percentage inhibition <80% at 20 µM or 50 μM, or percentage enzyme inhibition <50% at 10 µM were labelled as INACTIVE)"
9,COc1ccc(C2C(C(=O)c3ccc(OC)c(OC)c3)=C(O)C(=O)N2c2nc3ccc(Cl)cc3s2)cc1 (centres unmarked) [ADKPN163],"0 (compounds with IC50 > 20 μM, percentage inhibition <80% at 20 µM or 50 μM, or percentage enzyme inhibition <50% at 10 µM were labelled as INACTIVE)"
10,COc1ccc(C(=O)C2=C(O)C(=O)N(c3nc4ccc(Cl)cc4s3)C2c2ccc(F)cc2)cc1OC (centres unmarked) [ADKPN164],"0 (compounds with IC50 > 20 μM, percentage inhibition <80% at 20 µM or 50 μM, or percentage enzyme inhibition <50% at 10 µM were labelled as INACTIVE)"
11,COc1ccc(C2C(C(=O)c3ccc4c(c3)OCCO4)=C(O)C(=O)N2c2nc3ccccc3s2)cc1 (centres unmarked) [ADKPN165],"0 (compounds with IC50 > 20 μM, percentage inhibition <80% at 20 µM or 50 μM, or percentage enzyme inhibition <50% at 10 µM were labelled as INACTIVE)"
12,O=C(C1=C(O)C(=O)N(c2nc3ccc(Cl)cc3s2)C1c1ccc(F)cc1)c1ccc2c(c1)OCCO2 (centres unmarked) [ADRMC150],"0 (compounds with IC50 > 20 μM, percentage inhibition <80% at 20 µM or 50 μM, or percentage enzyme inhibition <50% at 10 µM were labelled as INACTIVE)"
13,Cc1ccc2nc(N3C(=O)C(O)=C(C(=O)c4ccc5c(c4)OCCO5)C3c3ccccc3)sc2c1 (centres unmarked) [ADRMC151],"0 (compounds with IC50 > 20 μM, percentage inhibition <80% at 20 µM or 50 μM, or percentage enzyme inhibition <50% at 10 µM were labelled as INACTIVE)"
14,COc1cc(C2C(C(=O)c3ccc4c(c3)OCCO4)=C(O)C(=O)N2c2nc3ccc(C)cc3s2)ccc1O (centres unmarked) [ADRMC152],"0 (compounds with IC50 > 20 μM, percentage inhibition <80% at 20 µM or 50 μM, or percentage enzyme inhibition <50% at 10 µM were labelled as INACTIVE)"
15,COc1ccc(C2C(C(=O)c3ccc4c(c3)OCCO4)=C(O)C(=O)N2c2nc3ccc(C)cc3s2)cc1OC (centres unmarked) [ADRMC153],"0 (compounds with IC50 > 20 μM, percentage inhibition <80% at 20 µM or 50 μM, or percentage enzyme inhibition <50% at 10 µM were labelled as INACTIVE)"
16,Cc1ccc2nc(N3C(=O)C(O)=C(C(=O)c4ccc5c(c4)OCCO5)C3c3ccc(F)cc3)sc2c1 (centres unmarked) [ADRMC154],"0 (compounds with IC50 > 20 μM, percentage inhibition <80% at 20 µM or 50 μM, or percentage enzyme inhibition <50% at 10 µM were labelled as INACTIVE)"
17,COc1ccc2nc(N3C(=O)C(O)=C(C(=O)c4ccc5c(c4)OCCO5)C3c3ccc(OC)c(OC)c3)sc2c1 (centres unmarked) [ADRMC155],"0 (compounds with IC50 > 20 μM, percentage inhibition <80% at 20 µM or 50 μM, or percentage enzyme inhibition <50% at 10 µM were labelled as INACTIVE)"
18,COc1ccc2nc(N3C(=O)C(O)=C(C(=O)c4ccc5c(c4)OCCO5)C3c3ccc(O)c(OC)c3)sc2c1 (centres unmarked) [ADRMC156],"0 (compounds with IC50 > 20 μM, percentage inhibition <80% at 20 µM or 50 μM, or percentage enzyme inhibition <50% at 10 µM were labelled as INACTIVE)"
19,COc1ccc(C2C(C(=O)c3ccc4c(c3)OCCO4)=C(O)C(=O)N2c2nc3ccc(Cl)cc3s2)cc1OC (centres unmarked) [ADRMC157],"0 (compounds with IC50 > 20 μM, percentage inhibition <80% at 20 µM or 50 μM, or percentage enzyme inhibition <50% at 10 µM were labelled as INACTIVE)"
20,COc1cc(C2C(C(=O)c3ccc4c(c3)OCCO4)=C(O)C(=O)N2c2nc3ccc(Cl)cc3s2)ccc1O (centres unmarked) [ADRMC158],"0 (compounds with IC50 > 20 μM, percentage inhibition <80% at 20 µM or 50 μM, or percentage enzyme inhibition <50% at 10 µM were labelled as INACTIVE)"

# Same assay, conditions: read-out: MPro activity (%)
row,Compound,activity at 25 µM [%]
1,COc1ccc(C(=O)C2=C(O)C(=O)N(c3nc4ccc(Cl)cc4s3)C2c2ccc(F)cc2)cc1OC (centres unmarked) [1a],34.8 ± 3.4
2,[O-][n+]1onc2cc(Cl)cc(Cl)c21 [1d],89.3 ± 1.9
3,CC(C)(C)OC(=O)NC1CCCN(CC(=O)NC(Cc2ccccc2)C(=O)Nc2nc3cc(Sc4ccccc4)ccc3[nH]2)C1=O (centres unmarked) [3a],64.9 ± 11.6
4,Cc1c(C(=O)NCc2ccccc2)[n+]([O-])c2ccccc2[n+]1[O-] [4a],59.4 ± 3.6
5,O=S(=O)(O)c1ccc(/C=N/N=c2\scc(-c3cs/c(=N\N=C\c4ccc(S(=O)(=O)O)o4)n3-c3ccccc3)n2-c2ccccc2)o1 [5a],65.6 ± 10.9
6,"O=C(O[C@@H]1Cc2c(O)cc(O)cc2O[C@@H]1c1ccc(O)c(O)c1)c1cc(O)c(O)c(O)c1 [5b, epicatechin gallate]",0
7,CC(=O)OC[C@H]1O[C@@H](Sc2ccccc2)[C@H](OC(C)=O)[C@@H](OC(C)=O)C1OC(C)=O (some centres unmarked) [6a],60.9 ± 1.5
8,COc1ccc2no[n+]([O-])c2c1 [6d],85.8 ± 3.5
9,O=C(O)c1ccc2no[n+]([O-])c2c1 [7d],66 ± 4
10,O=C(OC[C@H]1O[C@@H](OC(=O)c2ccccc2)[C@H](OC(=O)c2ccccc2)[C@@H](OC(=O)c2ccccc2)[C@@H]1OC(=O)c1ccccc1)c1ccccc1 [8a],67 ± 2.5
11,[O-][n+]1onc2ccc(/C=C/[S+]([O-])c3ccccc3)cc21 (centres unmarked) [8d],91.6 ± 0.1
12,[O-][n+]1onc2ccc(/C=C\Sc3ccc(F)cc3)cc21 [9d],81.4 ± 21.5
13,[O-][n+]1onc2ccc(/C=C/[S+]([O-])c3ccc(F)cc3)cc21 (centres unmarked) [10d],55.6 ± 3.4
14,Cc1ccc([S+]([O-])/C=C/c2ccc3no[n+]([O-])c3c2)cc1 (centres unmarked) [11d],70.6 ± 0.8
15,[O-][n+]1onc2ccc(/C=C\[S+]([O-])c3ccccc3)cc21 (centres unmarked) [12d],56.2 ± 0.5
16,O=S(=O)(/C=C\c1ccc2no[n+]([O-])c2c1)c1ccc(Cl)cc1 [13d],58 ± 0.3
17,Cc1ccc([S+]([O-])/C=C\c2ccc3no[n+]([O-])c3c2)cc1 (centres unmarked) [14d],73.8 ± 4.4
18,[O-][n+]1onc2ccc(/C=C\c3ccc4c(c3)OCO4)cc21 [15d],67.4 ± 1.8
19,[O-][S+](/C=C/c1ccc2nonc2c1)c1ccccc1 (centres unmarked) [16d],71.9 ± 11
20,O=[N+]([O-])c1ccc(CS(=O)(=O)/C=C/c2ccc3nonc3c2)cc1 [17d],116 ± 15
21,O=S(=O)(/C=C\c1ccc2no[n+]([O-])c2c1)c1ccccc1 [18d],71.2 ± 0.9
22,Cc1ccc(S(=O)(=O)/C=C\c2ccc3no[n+]([O-])c3c2)cc1 [19d],98.6 ± 2.4
23,Cc1ccc(S(=O)(=O)/C=C/c2ccc3no[n+]([O-])c3c2)cc1 [20d],62.6 ± 4.9
24,O=C(c1ccc2no[n+]([O-])c2c1)N1CCOCC1 [21d],78.7 ± 3.2

# Same assay, conditions: read-out: MPro inhibition
row,Compound,inhibition at 25 µM [%]
1,O=C(/C=C/c1ccc2ccccc2c1)c1ccc2ccccc2c1O [26d],45
2,COc1ccc(S(=O)(=O)Nc2nc3cc(Cl)c(Oc4cccc(Cl)c4Cl)cc3[nH]2)cc1 [30d],42
3,O=S(=O)(Nc1nc2cc(Cl)c(Oc3cccc(Cl)c3Cl)cc2[nH]1)c1ccc(Br)cc1 [32d],25
4,O=C1/C(=C/C=C/c2cccs2)CC/C1=C\C=C\c1cccs1 [37d],20 to 40
5,[O-][n+]1cc[n+]([O-])c2ccccc21 [38d],20 to 40

# Test system: MPro
# Assay: not given
# Conditions: compiled from peer-reviewed sources (287 compounds) ref the 18 original articles; cited from earlier work
row,Compound,Class (MPro activity class)
1,Maraviroc,"0 (compounds with IC50 > 20 μM, percentage inhibition <80% at 20 µM or 50 μM, or percentage enzyme inhibition <50% at 10 µM were labelled as INACTIVE)"
2,Phillyrin,"0 (compounds with IC50 > 20 μM, percentage inhibition <80% at 20 µM or 50 μM, or percentage enzyme inhibition <50% at 10 µM were labelled as INACTIVE)"
3,TERIFLUNOMIDE,"0 (compounds with IC50 > 20 μM, percentage inhibition <80% at 20 µM or 50 μM, or percentage enzyme inhibition <50% at 10 µM were labelled as INACTIVE)"
4,cangrelor,"0 (compounds with IC50 > 20 μM, percentage inhibition <80% at 20 µM or 50 μM, or percentage enzyme inhibition <50% at 10 µM were labelled as INACTIVE)"
